Laboratory results taken from patent US6759420B1, “Arylalkanoyl derivatives, processes for their preparation, their use and pharmaceutical compositions containing them” (Aventis Pharma Deutschland GmbH, priority 1999, dated 2004).
Counter-ions that a name gives are not always drawn.

Biological target: factor Xa (Homo sapiens, UniProt P00742)
Assay: Factor Xa assay (Test 1a), chromogenic
Type: biochemical
Design: purchased Enzyme Research Laboratories, Inc; South Bend, Ind
Details: in vitro factor Xa assay Test 1a; human factor Xa 0.5 nM, substrate S-2765 140 μM, 25° C.; Ki from IC50 corrected for substrate competition
Description: The ability of a compound of formula (I) to inhibit factor Xa, thrombin, plasmin, elastase, and trypsin may be assessed by determining the concentration of compound of formula (I) that inhibits enzyme activity by 50% (IC50). Purified enzymes are used in chromogenic assays. To determine the inhibition constant, the IC50 value is corrected for competition with substrate using the formula:
Ki=IC50×(1/{1+((substrate concentration)/substrate Km)})
where Km is the Michaelis-Menten constant. Y. -C. Chen and W. H. Prusoff, Biochem. Pharmacol. 22: […] (1973), which is incorporated herein by reference.
TBS-PEG buffer (50 mM Tris-Cl, pH 7.8, 200 mM NaCl, 0.05% (w/v) PEG-8000, 0.02% (w/v) NaN3) is used for this assay. The IC50 is determined by combining in appropriate wells of a Costar half-area microtiter plate 25 μl human factor Xa (Enzyme Research Laboratories, Inc.; South Bend, Ind.) in TBS-PEG; 40 μl 10% (v/v) DMSO in TBS-PEG (uninhibited control) or various concentrations of the compound to be tested diluted in 10% (v/v) DMSO in TBS-PEG; and substrate S-2765 (N-benzyloxycarbonyl-D-Arg-Gly-L-Arg-p-nitroanilide; Kabi Pharmacia, Inc.; Franklin Ohio) in TBS-PEG.
The assays are performed by pre-incubating the compound of formula (I) plus enzyme for 10 min, then the assay is initiated by adding substrate to obtain a final volume of 100 μl. The initial velocity of chromogenic substrate hydrolysis is measured by the change in absorbance at 405 nm using a Bio-tek Instruments kinetic plate reader (Ceres UV900HDi) at 25° C. during the linear portion of the time course (usually 1.5 min after addition of substrate). The concentration of inhibitor that causes a 50% decrease in the rate of substrate hydrolysis is predicted by linear regression after plotting the relative rates of hydrolysis (compared to the uninhibited control) versus the log of the compound of formula (I) concentration. The enzyme concentration is 0.5 nM and substrate concentration is 140 μM.

Sequence of factor Xa (P00742 235-488 limits assumed): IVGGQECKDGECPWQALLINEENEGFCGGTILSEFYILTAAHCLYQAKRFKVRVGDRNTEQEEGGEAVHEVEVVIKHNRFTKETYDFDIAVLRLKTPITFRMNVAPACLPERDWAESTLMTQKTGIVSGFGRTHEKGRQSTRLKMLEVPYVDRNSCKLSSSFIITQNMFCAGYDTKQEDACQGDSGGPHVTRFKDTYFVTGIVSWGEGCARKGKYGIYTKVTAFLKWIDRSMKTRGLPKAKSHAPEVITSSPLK
Sequence of factor Xa (P00742 41-179 limits assumed): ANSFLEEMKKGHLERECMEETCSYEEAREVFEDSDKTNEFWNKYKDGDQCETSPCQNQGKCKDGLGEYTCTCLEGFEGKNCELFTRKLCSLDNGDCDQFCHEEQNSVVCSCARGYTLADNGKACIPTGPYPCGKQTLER

Structure (SMILES)	Ki [nM]
Cc1ccccc1C(Cc1ccc(C(=N)N)cc1)C(=O)NC(C(=O)NCC1CCN(C(=N)N)CC1)C1CCCCC1 (single isomer, unassigned; less polar) [Example 163]	1
N=C(N)c1ccc(CC(C(=O)N[C@H](C(=O)NCC2CCN(C(=N)N)CC2)C2CCCCC2)c2ccccc2Br)cc1 (single isomer, unassigned; less polar) [Example 236]	5
CN(Cc1ccccc1)C(=O)[C@H](CCCNC(=N)N)NC(=O)C(NC(=O)C(Cc1ccc(C(=N)N)cc1)C1CCCCC1)C1CCCCC1 (single isomer, unassigned; less polar) [Example 183]	25
N=C(N)NCCC[C@H](NC(=O)[C@H](CCCN)NC(=O)C(Cc1ccc(C(=N)N)cc1)c1cccnc1)C(N)=O (mixture of isomers) [Example 51, 2-(S)-{5-Amino-2-(S)-[3-(4-carbamimidoyl-phenyl)-2-(R,S)-pyridin-3-yl-propionylamino]-pentanoylamino}-5-guanidino-pentanoic acid amide trifluoroacetic acid salt]	3860
CCCC[C@H](NC(=O)C(Cc1ccc(C(=N)N)cc1)c1cccnc1)C(=O)N[C@@H](CCCNC(=N)N)C(N)=O (mixture of isomers) [Example 23, 2-(S)-[3-(4-Carbamimidoyl-phenyl)-2-(R,S)-pyridin-3-yl-propionylamino]-hexanoic acid (1-(S)-carbamoyl-4-guanidino-butyl)-amide trifluoroacetic acid salt]	2.8
N=C(N)NCCCC(NC(=O)C(NC(=O)C(Cc1ccc(C(=N)N)cc1)c1ccc(Br)cc1)C1CCCCC1)C(N)=O (single isomer, unassigned; less polar) [Example 119]	11
N=C(N)c1ccc(CC(C(=O)N[C@H](C(=O)NCC2CCN(C(=N)N)CC2)C2CCCCC2)c2ccccc2Cl)cc1 (single isomer, unassigned; less polar) [Example 230]	1
N=C(N)c1ccc(CC(C(=O)N[C@H](C(=O)NCC2CCN(C(=N)N)CC2)C2CCCCC2)c2ccccc2F)cc1 (single isomer, unassigned; less polar) [Example 235]	12
N=C(N)NCCC[C@H](NC(=O)[C@H](Cc1ccccc1)NC(=O)C(Cc1ccc(C(=N)N)cc1)c1cccnc1)C(N)=O (mixture of isomers) [Example 106, 2-(S)-{2-(S)-[3-(4-Carbamimidoyl-phenyl)-2-(R,S)-pyridin-3-yl-propionylamino]-3-phenyl-propionylamino}-5-guanidino-pentanoic acid amide trifluoroacetic acid salt]	67
Cc1cccc(C(Cc2ccc(C(=N)N)cc2)C(=O)N[C@H](C(=O)N[C@@H](CCCNC(=N)N)C(N)=O)C2CCCCC2)c1 (mixture of isomers) [Example 122, 2-(S)-{2-(S)-[3-(4-Carbamimidoyl-phenyl)-2-(R,S)-m-tolyl-propionylamino]-2-cyclohexyl-acetylamino}-5-guanidino-pentanoic acid amide hydrochloric acid salt]	16
N=C(N)NCCC[C@H](NC(=O)C(NC(=O)C(Cc1ccc(C(=N)N)cc1)C1CCCCC1)C1CCCCC1)C(=O)NCc1cccs1 (stereo partly drawn) [Example 192, 2-(S)-{2-[3-(4-Carbamimidoyl-phenyl)-2-cyclohexyl-propionylamino]-2-cyclohexyl-acetylamino}-5-guanidino-pentanoic acid (thiophen-2-ylmethyl)-amide trifluoroacetic acid salt]	44
CCCOC(=O)C(CCCNC(=N)N)NC(=O)C(NC(=O)C(Cc1ccc(C(=N)N)cc1)C1CCCCC1)C1CCCCC1 (single isomer, unassigned; less polar) [Example 189]	20
Cc1ccccc1C(Cc1ccc(C(=N)N)cc1)C(=O)N[C@H](C(=O)N[C@@H](CCCNC(=N)N)C(N)=O)C1CCCCC1 (mixture of isomers) [Example 140, 2-(S)-{2-(S)-[3-(4-Carbamimidoyl-phenyl)-2-(R,S)-o-tolyl-propionylamino]-2-cyclohexyl-acetylamino}-5-guanidino-pentanoic acid amide hydrochloric acid salt]	3
CS(=O)(=O)c1cccc(C(Cc2ccc(C(=N)N)cc2)C(=O)N[C@H](C(=O)NCC2CCN(C(=N)N)CC2)C2CCCCC2)c1 (single isomer, unassigned; less polar) [Example 252]	31
Cc1cccc(C(Cc2ccc(N)cc2)C(=O)NC(C(=O)NCC2CCN(C(=N)N)CC2)C2CCCCC2)c1 (single isomer, unassigned; less polar) [Example 167]	74
CC(C)OC(=O)[C@H](CCCNC(=N)N)NC(=O)[C@@H](NC(=O)C(Cc1ccc(C(=N)N)cc1)c1cccc(Br)c1)C1CCCCC1 (single isomer, unassigned; more polar) [Example 243]	25
N=C(N)NCCC[C@H](NC(=O)[C@@H](NC(=O)C(Cc1ccc(C(=N)N)cc1)C1CCCCC1)C1CCCCC1)C(=O)NCCc1ccccc1 (mixture of isomers) [Example 184, 2-(S)-{2-(R,S)-[3-(4-Carbamimidoyl-phenyl)-2-cyclohexyl-propionylamino]-2-(S)-cyclohexyl-acetylamino}-5-guanidino-pentanoic acid phenethyl-amide trifluoroacetic acid salt]	19
Cc1ccccc1C(Cc1ccc(C(=N)N)cc1)C(=O)NC(C(=O)NCC1CCN(C(=N)N)CC1)C1CCCCC1 (single isomer, unassigned; more polar) [Example 162]	25

Results, then the molecule that gave them:

Ki [nM]	Structure (SMILES)
72	Cc1ccc(C(Cc2ccc(C(=N)N)cc2)C(=O)NC(C(=O)NCC2CCN(C(=N)N)CC2)C2CCCCC2)cc1 (single isomer, unassigned; less polar) [Example 172]
11	CCOC(=O)[C@H](CCCNC(=N)N)NC(=O)[C@@H](NC(=O)C(Cc1ccc(C(=N)N)cc1)c1cccc(F)c1)C1CCCCC1 (mixture of isomers) [Example 126, 2-(S)-{2-(S)-[3-(4-Carbamimidoyl-phenyl)-2-(R,S)-(3-fluoro-phenyl)-propionylamino]-2-cyclohexyl-acetylamino}-5-guanidino-pentanoic acid ethyl ester hydrochloric acid salt]
5840	Cc1ccc(C(Cc2ccc(C(=N)N)cc2)C(=O)NC(C(=O)NCc2ccc(C(=N)N)cc2)C2CCCCC2)cc1 (single isomer, unassigned; more polar) [Example 153]
100	Cc1ccc(C(Cc2ccc(C(=N)N)cc2)C(=O)N[C@H](C(=O)N[C@@H](CCCNC(=N)N)C(N)=O)C2CCCCC2)cc1 (mixture of isomers) [Example 141, 2-(S)-{2-(S)-[3-(4-Carbamimidoyl-phenyl)-2-(R,S)-p-tolyl-propionylamino]-2-cyclohexyl-acetylamino}-5-guanidino-pentanoic acid amide hydrochloric acid salt]
310	Cc1ccc(C(Cc2ccc(C(=N)N)cc2)C(=O)NC(C(=O)NCc2ccc(C(=N)N)cc2)C2CCCCC2)cc1 (single isomer, unassigned; less polar) [Example 154]
42	N=C(N)NCCC[C@H](NC(=O)C(NC(=O)C(Cc1ccc(C(=N)N)cc1)C1CCCCC1)C1CCCCC1)C(=O)NCc1ccc(Cl)cc1 (stereo partly drawn) [Example 201, 2-(S)-{2-[3-(4-Carbamimidoyl-phenyl)-2-cyclohexyl-propionylamino]-2-cyclohexyl-acetylamino}-5-guanidino-pentanoic acid 4-chloro-benzylamide trifluoroacetic acid salt]
2.3	N=C(N)NCCC[C@H](NC(=O)[C@@H](NC(=O)C(Cc1ccc(C(=N)N)cc1)c1cccnc1)c1ccccc1)C(N)=O (mixture of isomers) [Example 66, 2-(S)-{2-(S)-[3-(4-Carbamimidoyl-phenyl)-2-(R,S)-pyridin-3-yl-propionyl-amino]-2-phenyl-acetylamino}-5-guanidino-pentanoic acid amide trifluoroacetic acid salt]
1	CC(=N)N1CCC(CNC(=O)C(NC(=O)C(Cc2ccc(C(=N)N)cc2)c2cccc(Br)c2)C2CCCCC2)CC1 (single isomer, unassigned; less polar) [Example 223]
1	N=C(N)NCCCC(NC(=O)C(NC(=O)C(Cc1ccc(C(=N)N)cc1)c1cccc(Cl)c1)C1CCCCC1)C(N)=O (single isomer, unassigned; less polar) [Example 124]
